Data taken from ChEMBL document CHEMBL5291721, “A preclinical secondary pharmacology resource illuminates target-adverse drug reaction associations of marketed drugs” (Nat Commun, 2023).

Tests used:
[1] = target: Hydroxycarboxylic acid receptor 2 (Homo sapiens, UniProt Q8TDS4)
[2] = target: T1, Muscarinic acetylcholine receptor M1 (Homo sapiens, UniProt P11229); assay type: functional, cell-based
T1 sequence (P11229 whole entry): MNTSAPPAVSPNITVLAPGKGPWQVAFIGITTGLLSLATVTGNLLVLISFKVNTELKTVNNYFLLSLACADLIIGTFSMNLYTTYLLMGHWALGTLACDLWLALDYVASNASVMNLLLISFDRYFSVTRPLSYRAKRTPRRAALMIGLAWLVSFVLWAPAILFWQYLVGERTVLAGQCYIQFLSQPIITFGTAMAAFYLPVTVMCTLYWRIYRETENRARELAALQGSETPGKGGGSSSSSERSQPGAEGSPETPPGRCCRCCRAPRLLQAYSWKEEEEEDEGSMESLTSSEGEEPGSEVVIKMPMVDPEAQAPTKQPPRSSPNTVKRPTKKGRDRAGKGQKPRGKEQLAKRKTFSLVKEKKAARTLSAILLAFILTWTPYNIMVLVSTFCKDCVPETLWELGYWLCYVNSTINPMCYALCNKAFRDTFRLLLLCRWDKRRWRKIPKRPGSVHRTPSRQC

[3] = target: T1, Muscarinic acetylcholine receptor M1; assay type: functional, cell-based; remark: listed apart in the source
D(1A) dopamine receptor [4] = target: T2, D(1A) dopamine receptor (Homo sapiens, UniProt P21728); assay type: functional, cell-based
T2 sequence (P21728 whole entry): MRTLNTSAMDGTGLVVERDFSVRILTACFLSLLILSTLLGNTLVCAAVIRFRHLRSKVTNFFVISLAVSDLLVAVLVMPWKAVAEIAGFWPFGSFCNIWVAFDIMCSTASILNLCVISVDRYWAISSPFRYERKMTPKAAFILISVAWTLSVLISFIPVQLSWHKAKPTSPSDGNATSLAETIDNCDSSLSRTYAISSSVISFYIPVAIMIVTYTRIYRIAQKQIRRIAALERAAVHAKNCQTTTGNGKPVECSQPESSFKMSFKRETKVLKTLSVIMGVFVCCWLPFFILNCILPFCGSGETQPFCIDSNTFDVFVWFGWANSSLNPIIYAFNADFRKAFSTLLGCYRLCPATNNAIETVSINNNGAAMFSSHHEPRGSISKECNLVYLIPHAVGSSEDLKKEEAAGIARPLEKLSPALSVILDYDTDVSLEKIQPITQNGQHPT

[5] = target: 5-hydroxytryptamine receptor 2B (Homo sapiens, UniProt P41595)
5-hydroxytryptamine receptor 2B, sequence (P41595 whole entry): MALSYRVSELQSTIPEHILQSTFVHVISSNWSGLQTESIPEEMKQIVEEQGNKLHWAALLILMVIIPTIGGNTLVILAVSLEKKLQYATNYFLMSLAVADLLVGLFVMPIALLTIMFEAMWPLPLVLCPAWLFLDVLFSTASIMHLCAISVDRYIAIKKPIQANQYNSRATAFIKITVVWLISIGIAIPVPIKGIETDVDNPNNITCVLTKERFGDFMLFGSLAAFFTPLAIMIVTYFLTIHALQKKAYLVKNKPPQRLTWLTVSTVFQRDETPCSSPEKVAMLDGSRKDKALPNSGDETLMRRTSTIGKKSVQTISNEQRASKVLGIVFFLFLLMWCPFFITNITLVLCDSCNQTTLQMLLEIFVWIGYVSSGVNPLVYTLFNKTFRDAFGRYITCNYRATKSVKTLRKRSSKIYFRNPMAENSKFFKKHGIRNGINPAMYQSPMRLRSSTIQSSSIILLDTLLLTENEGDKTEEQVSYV

Androgen receptor = target: T3, Androgen receptor (Rattus norvegicus, UniProt P15207); assay type: functional
T3 sequence (P15207 whole entry): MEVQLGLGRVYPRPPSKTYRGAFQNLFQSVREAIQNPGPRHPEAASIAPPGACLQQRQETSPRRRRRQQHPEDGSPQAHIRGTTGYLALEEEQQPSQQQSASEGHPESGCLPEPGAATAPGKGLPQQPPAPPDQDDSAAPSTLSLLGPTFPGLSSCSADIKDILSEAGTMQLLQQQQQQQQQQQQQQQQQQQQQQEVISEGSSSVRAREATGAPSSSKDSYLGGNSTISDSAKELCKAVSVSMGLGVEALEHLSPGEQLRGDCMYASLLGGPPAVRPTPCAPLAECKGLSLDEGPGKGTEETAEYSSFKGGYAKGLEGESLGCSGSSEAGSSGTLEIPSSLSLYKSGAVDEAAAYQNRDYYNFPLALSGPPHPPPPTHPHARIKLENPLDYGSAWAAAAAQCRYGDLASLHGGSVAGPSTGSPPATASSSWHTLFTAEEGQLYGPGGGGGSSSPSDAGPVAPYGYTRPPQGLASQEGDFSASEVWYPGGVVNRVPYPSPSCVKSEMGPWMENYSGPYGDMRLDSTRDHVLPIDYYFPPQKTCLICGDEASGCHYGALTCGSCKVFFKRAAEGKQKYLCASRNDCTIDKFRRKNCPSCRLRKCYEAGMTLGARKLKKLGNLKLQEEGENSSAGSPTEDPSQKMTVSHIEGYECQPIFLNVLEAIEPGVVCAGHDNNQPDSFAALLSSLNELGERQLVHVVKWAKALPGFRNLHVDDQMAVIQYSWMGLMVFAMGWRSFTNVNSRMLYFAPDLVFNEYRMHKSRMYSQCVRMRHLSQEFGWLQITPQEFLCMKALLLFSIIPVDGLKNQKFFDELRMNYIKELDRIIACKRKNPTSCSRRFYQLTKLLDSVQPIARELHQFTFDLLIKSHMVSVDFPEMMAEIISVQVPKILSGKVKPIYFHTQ

[6] = target: Sodium channel protein type 5 subunit alpha (Homo sapiens, UniProt Q14524); assay type: functional, cell-based
[7] = target: Gamma-aminobutyric acid type B receptor subunit 1 (Homo sapiens, UniProt Q9UBS5)
Gamma-aminobutyric acid type B receptor subunit 1, sequence (Q9UBS5 whole entry): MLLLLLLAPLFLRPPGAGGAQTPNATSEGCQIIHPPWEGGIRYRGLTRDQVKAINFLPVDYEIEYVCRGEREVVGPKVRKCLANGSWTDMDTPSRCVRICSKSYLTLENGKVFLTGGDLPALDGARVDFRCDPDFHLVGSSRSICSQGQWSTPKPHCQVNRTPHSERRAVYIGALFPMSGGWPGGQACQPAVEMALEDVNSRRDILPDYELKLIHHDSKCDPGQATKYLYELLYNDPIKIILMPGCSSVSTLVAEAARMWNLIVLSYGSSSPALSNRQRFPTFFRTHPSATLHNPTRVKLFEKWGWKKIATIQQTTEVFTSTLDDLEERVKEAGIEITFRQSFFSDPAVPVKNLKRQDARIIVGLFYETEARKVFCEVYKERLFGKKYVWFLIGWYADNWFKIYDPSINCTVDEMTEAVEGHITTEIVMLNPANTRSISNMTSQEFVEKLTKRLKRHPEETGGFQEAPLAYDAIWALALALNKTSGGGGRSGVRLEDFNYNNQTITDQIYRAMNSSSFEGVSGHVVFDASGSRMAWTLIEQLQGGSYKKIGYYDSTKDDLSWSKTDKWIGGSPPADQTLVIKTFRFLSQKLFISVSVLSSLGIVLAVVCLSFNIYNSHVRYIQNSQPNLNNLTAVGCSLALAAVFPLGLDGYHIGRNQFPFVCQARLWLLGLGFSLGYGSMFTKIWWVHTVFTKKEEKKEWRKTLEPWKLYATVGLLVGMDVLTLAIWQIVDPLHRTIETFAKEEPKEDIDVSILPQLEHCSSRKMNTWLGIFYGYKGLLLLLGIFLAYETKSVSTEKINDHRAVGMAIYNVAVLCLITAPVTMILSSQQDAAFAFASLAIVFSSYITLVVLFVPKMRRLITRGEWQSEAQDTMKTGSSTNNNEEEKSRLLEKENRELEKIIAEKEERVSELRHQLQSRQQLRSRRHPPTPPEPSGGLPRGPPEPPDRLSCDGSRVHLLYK

[8] = target: 5-hydroxytryptamine receptor 5A (Homo sapiens, UniProt P47898)
5-hydroxytryptamine receptor 5A, sequence (P47898 whole entry): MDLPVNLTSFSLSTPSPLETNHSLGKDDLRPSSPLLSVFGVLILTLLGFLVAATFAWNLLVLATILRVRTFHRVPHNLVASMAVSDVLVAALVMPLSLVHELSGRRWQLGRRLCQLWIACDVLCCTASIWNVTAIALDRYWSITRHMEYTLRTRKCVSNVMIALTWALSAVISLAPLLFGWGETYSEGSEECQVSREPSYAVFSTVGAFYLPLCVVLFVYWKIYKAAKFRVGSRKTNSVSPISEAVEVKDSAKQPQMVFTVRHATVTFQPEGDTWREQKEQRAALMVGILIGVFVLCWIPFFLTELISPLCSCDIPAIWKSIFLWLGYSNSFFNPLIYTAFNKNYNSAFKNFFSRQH

[9] = target: T4, Prostaglandin G/H synthase 1 (Rattus norvegicus, UniProt Q63921); assay type: functional
T4 sequence (Q63921 whole entry): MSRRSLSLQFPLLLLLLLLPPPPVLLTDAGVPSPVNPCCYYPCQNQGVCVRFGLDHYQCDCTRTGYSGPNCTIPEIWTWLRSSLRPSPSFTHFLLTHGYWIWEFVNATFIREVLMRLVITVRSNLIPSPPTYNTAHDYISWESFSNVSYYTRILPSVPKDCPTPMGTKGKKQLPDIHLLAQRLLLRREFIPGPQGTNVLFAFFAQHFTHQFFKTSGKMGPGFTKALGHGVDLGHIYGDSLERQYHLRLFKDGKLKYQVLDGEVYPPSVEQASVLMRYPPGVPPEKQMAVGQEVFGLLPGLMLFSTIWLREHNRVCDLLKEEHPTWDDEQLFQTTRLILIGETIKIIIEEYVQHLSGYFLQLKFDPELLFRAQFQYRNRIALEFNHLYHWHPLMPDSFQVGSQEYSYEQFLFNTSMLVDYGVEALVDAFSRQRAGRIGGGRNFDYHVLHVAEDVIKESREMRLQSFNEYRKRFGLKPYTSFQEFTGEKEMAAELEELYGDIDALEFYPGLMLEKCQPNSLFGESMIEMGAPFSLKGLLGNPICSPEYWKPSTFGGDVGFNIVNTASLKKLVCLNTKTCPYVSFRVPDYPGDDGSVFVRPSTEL

Cannabinoid receptor 1 = Cannabinoid receptor 1 (Homo sapiens, UniProt P21554); assay type: functional
Cannabinoid receptor 1, sequence (P21554 whole entry): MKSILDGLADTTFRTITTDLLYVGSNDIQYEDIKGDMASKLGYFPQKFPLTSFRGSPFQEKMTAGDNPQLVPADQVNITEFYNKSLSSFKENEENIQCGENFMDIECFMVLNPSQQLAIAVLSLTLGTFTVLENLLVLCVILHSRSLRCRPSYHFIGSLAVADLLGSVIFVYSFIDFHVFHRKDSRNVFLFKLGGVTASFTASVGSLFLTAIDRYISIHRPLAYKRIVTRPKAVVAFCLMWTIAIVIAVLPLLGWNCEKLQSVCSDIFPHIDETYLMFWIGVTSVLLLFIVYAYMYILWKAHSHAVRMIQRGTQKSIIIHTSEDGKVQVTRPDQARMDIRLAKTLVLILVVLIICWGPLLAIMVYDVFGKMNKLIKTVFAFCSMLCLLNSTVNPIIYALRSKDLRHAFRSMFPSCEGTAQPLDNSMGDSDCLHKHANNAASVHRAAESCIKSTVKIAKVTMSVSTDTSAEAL

D(1B) dopamine receptor = D(1B) dopamine receptor (Homo sapiens, UniProt P21918)
D(1B) dopamine receptor, sequence (P21918 whole entry): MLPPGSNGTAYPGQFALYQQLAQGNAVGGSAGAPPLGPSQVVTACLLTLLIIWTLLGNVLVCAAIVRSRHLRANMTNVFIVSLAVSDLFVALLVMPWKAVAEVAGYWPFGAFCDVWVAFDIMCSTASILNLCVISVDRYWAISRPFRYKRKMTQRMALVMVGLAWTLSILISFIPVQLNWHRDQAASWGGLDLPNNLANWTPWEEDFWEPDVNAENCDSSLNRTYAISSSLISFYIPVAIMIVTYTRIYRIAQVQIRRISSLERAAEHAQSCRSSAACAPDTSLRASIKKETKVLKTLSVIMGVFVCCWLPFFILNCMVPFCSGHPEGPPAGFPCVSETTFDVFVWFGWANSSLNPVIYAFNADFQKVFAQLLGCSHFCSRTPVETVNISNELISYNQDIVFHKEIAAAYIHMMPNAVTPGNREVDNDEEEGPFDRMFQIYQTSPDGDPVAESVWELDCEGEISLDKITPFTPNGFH

Substance-K receptor = target: T5, Substance-K receptor (Homo sapiens, UniProt P21452)
T5 sequence (P21452 whole entry): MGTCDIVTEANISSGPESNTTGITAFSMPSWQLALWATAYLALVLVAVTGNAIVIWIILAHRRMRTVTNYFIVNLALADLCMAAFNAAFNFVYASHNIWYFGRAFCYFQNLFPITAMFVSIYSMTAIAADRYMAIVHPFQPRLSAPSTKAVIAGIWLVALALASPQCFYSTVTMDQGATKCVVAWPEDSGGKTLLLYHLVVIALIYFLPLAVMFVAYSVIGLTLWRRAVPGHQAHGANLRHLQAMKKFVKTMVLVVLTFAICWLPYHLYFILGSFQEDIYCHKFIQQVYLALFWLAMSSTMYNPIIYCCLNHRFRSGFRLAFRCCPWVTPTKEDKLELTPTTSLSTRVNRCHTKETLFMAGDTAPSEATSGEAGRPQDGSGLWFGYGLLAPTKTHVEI

D(1A) dopamine receptor [10] = target: T2, D(1A) dopamine receptor
Further: assay procedure not described here.

Hydroxycarboxylic acid receptor 2, sequence (Q8TDS4 whole entry): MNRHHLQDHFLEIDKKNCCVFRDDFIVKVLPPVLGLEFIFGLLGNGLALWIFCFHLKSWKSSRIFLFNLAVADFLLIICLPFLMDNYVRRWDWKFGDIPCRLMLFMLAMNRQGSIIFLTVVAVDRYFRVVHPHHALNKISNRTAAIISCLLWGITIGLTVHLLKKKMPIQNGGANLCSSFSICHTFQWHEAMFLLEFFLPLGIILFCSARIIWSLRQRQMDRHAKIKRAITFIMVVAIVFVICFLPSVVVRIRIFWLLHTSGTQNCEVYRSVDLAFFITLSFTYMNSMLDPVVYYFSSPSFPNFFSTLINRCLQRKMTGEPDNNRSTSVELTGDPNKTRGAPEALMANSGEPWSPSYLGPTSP

## COc1ccc(C(=O)Nc2ccccc2CCC2CCCCN2C)cc1 (centres undefined) [ENCAINIDE]
[1]
  AC50: > 10 µM

## NC1CCN(c2c(F)cc3c(=O)c(C(=O)O)cn(C4CC4)c3c2Cl)C1 (centres undefined) [CLINAFLOXACIN]
[2]
  AC50: > 300 µM
[3]
  AC50: 40 µM

## O=[N+]([O-])O[C@@H]1CO[C@H]2[C@@H]1OC[C@@H]2O [ISOSORBIDE MONONITRATE]
[1]
  AC50: > 10 µM

## C=CCN1C[C@H](C(=O)N(CCCN(C)C)C(=O)NCC)C[C@@H]2c3cccc4[nH]cc(c34)C[C@H]21 [CABERGOLINE]
D(1A) dopamine receptor [4]
  AC50: > 30 µM
[5]
  AC50: 0.0148 µM

## CN(C)CC/C=C1\c2ccccc2CSc2ccccc21 [DOTHIEPIN]
Androgen receptor
  AC50: > 30 µM

## CC[C@@H](C(N)=O)N1CCCC1=O
[6]
  AC50: > 50 µM

## CCCCCNC(=N)N/N=C/c1c[nH]c2ccc(OC)cc12 [TEGASEROD]
[7]
  AC50: > 10 µM
[8]
  AC50: 0.19 µM
[9]
  AC50: > 30 µM

## CCOc1ccccc1OCC1CNCCO1 (centres undefined) [VILOXAZINE]
Cannabinoid receptor 1
  AC50: > 10 µM
D(1B) dopamine receptor
  AC50: > 10 µM
[7]
  AC50: > 10 µM
[8]
  AC50: > 10 µM
Substance-K receptor
  AC50: > 10 µM

## O=[N+]([O-])c1cn2c(n1)OC[C@@H](OCc1ccc(OC(F)(F)F)cc1)C2 [PRETOMANID]
Cannabinoid receptor 1
  AC50: > 10 µM

## CC(=O)c1ccc2c(c1)N(CCCN(C)C)c1ccccc1S2 [ACEPROMAZINE]
D(1A) dopamine receptor [4]
  AC50: 1.4 µM
D(1A) dopamine receptor [10]
  AC50: 0.066 µM
